What was measured:
[1] = Drug excretion in healthy human urine assessed as unchanged compound at 600 mg, po; format: ADME, tissue-based; settings: read-out: Activity
[2] = Cmax in patient plasma at 600 mg, iv or 600 mg, po administered every 12 hrs by HPLC; format: ADME, organism-based; settings: human
[3] = AUC (24 hrs) in patient plasma at 600 mg, iv or 600 mg, po administered every 12 hrs by HPLC; format: ADME, organism-based; settings: human
Homo sapiens = test: Nonrenal clearance in healthy human at 600 mg, po; format: ADME, organism-based; settings: in vivo
[4] = AUC (12 hrs) in liver transplant patient plasma at 600 mg, iv or 600 mg, po administered every 12 hrs by HPLC; format: ADME, organism-based; settings: human

dose excreted [1]: 30%
Cmax [2]: 14700 ng/mL
AUC [3]: 196 µg·h/mL
Dose non renally cleared (Homo sapiens): 65%
AUC at 12 h [4]: 413 µg·h/mL
SMILES: CC(=O)NC[C@H]1CN(c2ccc(N3CCOCC3)c(F)c2)C(=O)O1 [LINEZOLID]

Reference: ChEMBL document CHEMBL1671753, “Therapeutic drug monitoring of linezolid: a retrospective monocentric analysis” (Antimicrob Agents Chemother, 2010)
